These results are taken from article PMC9024363, “Study on the Biochemical Characterization and Selectivity of Three β-Glucosidases From Bifidobacterium adolescentis ATCC15703” (Frontiers in Microbiology, 2022).

What all share (format): biochemical
The target of assay [1] is T1, BaBgl3B (Bifidobacterium adolescentis, UniProt A1A2P5).
T1 construct: gene bglX; GH3; N-terminus from primer MSSCGC
T1 sequence (A1A2P5 1-809): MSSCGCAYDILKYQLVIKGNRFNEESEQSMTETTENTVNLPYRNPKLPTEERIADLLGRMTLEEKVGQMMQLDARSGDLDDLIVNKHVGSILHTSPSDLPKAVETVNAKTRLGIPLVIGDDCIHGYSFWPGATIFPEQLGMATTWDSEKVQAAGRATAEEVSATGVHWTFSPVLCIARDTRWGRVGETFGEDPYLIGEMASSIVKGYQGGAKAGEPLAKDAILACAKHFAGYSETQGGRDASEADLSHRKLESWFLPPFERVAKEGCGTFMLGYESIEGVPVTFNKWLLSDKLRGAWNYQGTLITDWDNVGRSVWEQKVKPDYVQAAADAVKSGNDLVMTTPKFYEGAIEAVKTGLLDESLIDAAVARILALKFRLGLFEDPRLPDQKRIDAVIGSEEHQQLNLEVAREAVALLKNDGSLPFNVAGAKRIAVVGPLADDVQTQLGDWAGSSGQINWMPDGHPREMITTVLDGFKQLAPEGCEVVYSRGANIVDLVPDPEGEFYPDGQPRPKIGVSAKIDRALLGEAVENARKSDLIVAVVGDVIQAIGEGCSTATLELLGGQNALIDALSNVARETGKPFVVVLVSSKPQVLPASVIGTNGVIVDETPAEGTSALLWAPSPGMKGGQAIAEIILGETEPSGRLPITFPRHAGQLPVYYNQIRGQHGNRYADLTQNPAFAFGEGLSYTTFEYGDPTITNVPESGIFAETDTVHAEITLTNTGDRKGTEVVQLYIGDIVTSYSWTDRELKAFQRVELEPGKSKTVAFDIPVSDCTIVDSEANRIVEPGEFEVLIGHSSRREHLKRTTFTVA
The assay is described as follows: pNPβGlc hydrolysis, absorbance […] nm.

The target of assay [2] is T2, BaBgl1A (Bifidobacterium adolescentis, UniProt A1A2Y5).
T2 construct: gene BAD_1287; GH1; N-terminus from primer MKEQYE
T2 sequence (A1A2Y5 1-391): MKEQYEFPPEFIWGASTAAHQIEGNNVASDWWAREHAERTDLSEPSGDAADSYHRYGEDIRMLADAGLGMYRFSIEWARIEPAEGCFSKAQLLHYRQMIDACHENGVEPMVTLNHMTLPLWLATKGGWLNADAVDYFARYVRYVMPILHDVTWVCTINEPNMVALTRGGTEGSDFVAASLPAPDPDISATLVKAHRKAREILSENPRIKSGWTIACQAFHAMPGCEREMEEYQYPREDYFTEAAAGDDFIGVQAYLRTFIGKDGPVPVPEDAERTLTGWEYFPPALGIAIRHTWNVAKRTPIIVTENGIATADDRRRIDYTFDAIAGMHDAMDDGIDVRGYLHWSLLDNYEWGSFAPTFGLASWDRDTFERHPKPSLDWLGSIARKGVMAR
The assay is described as follows: pNPβGlc hydrolysis, absorbance […] nm.

Assay [3] deals with T1, BaBgl3B. The assay is described as follows: pNPβGlc hydrolysis, absorbance […] nm. The note with it: competitive; pNPβGlc substrate; optimum pH 6.5, 50 °C.
The target of assay [4] is T2, BaBgl1A. The assay is described as follows: pNPβGlc hydrolysis, absorbance […] nm. The note with it: competitive; pNPβGlc substrate; optimum pH 6.0, 30 °C.
Another assay deals with T3, BaBgl3A (Bifidobacterium adolescentis, UniProt A1A2P2).
T3 construct: gene BAD_1194; GH3; N-terminus from primer MSENTY
T3 sequence (A1A2P2 1-751): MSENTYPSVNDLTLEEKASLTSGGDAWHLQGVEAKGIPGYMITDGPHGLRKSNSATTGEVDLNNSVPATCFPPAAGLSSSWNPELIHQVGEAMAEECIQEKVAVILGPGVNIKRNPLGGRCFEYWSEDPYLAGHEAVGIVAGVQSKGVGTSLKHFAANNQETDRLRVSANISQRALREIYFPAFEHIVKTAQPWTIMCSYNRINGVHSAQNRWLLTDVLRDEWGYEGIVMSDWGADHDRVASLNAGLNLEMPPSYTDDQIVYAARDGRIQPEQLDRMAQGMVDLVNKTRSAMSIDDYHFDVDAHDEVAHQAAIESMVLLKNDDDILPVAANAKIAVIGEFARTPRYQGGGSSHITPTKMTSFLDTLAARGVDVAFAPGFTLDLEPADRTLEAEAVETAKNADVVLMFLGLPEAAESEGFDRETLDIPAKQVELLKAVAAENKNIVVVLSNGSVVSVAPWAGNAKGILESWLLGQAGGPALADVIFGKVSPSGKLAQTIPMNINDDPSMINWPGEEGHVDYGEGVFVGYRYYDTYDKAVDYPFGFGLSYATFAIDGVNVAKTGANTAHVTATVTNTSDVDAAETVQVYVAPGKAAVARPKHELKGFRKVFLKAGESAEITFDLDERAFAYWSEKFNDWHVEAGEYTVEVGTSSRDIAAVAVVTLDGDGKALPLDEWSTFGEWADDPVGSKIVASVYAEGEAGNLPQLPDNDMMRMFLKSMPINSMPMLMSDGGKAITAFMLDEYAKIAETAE
The assay is described as follows: TLC and HPLC of products. The note with it: optimum pH, 37 °C, 2 h; 5 mg/ml substrate.

For `OC[C@H]1OC(O)[C@@H](O)[C@@H](O)[C@@H]1O` (some centres unmarked) [mannose], the inhibition at 1 M on BaBgl3B [1] and against BaBgl1A [2] was greater than 70% in each case.

For the molecule `OCC1(O)OC[C@@H](O)[C@@H](O)[C@@H]1O` (some centres unmarked) [fructose], the “% inhibition” value at BaBgl3B [3] was “mannose and fructose acted as competitive inhibitors for BaBgl1A and BaBgl3B”; at BaBgl1A [4], “mannose and fructose acted as competitive inhibitors for BaBgl1A and BaBgl3B”.

Consider `CC(C)=CCC[C@](C)(O[C@@H]1O[C@H](CO[C@@H]2O[C@H](CO)[C@@H](O)[C@H](O)[C@H]2O)[C@@H](O)[C@H](O)[C@H]1O)[C@H]1CC[C@]2(C)[C@@H]1[C@H](O)C[C@@H]1[C@@]3(C)CC[C@H](O[C@@H]4O[C@H](CO)[C@@H](O)[C@H](O)[C@H]4O[C@@H]4O[C@H](CO)[C@@H](O)[C@H](O)[C@H]4O)C(C)(C)[C@@H]3CC[C@]12C` [Rb1], for which the “TLC and HPLC of products” value on BaBgl3A was “Rb1 could be converted into Rd and Gyp XVII by BaBgl3A”.
